pIC50: −log10 of the molar value. Where a name gives a salt, the structure may show the parent alone.
Assays:
NaV1.1 = NaV1.1 (Homo sapiens (Human), UniProt P35498); test: Sodium Influx Assay (Flux), NaV1.1; format: cell-based; conditions: Trex HEK293 cells, ANG2 dye, inactivated state;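 further: channels co-expressed with human β1 subunit and held open by modulators, cells exposed to compounds for one hour at room temperature, IC50 from percent inhibition of influx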
NaV1.5 = NaV1.5 (Homo sapiens (Human), UniProt Q14524); test: Sodium Influx Assay (Flux), NaV1.5; conditions: read-out: Flux NaV1.5 IC50; Trex HEK293 cells, ANG2 dye, inactivated state
Sequence of NaV1.5 (Q14524 other isoform, or with tags, fused parts or gaps): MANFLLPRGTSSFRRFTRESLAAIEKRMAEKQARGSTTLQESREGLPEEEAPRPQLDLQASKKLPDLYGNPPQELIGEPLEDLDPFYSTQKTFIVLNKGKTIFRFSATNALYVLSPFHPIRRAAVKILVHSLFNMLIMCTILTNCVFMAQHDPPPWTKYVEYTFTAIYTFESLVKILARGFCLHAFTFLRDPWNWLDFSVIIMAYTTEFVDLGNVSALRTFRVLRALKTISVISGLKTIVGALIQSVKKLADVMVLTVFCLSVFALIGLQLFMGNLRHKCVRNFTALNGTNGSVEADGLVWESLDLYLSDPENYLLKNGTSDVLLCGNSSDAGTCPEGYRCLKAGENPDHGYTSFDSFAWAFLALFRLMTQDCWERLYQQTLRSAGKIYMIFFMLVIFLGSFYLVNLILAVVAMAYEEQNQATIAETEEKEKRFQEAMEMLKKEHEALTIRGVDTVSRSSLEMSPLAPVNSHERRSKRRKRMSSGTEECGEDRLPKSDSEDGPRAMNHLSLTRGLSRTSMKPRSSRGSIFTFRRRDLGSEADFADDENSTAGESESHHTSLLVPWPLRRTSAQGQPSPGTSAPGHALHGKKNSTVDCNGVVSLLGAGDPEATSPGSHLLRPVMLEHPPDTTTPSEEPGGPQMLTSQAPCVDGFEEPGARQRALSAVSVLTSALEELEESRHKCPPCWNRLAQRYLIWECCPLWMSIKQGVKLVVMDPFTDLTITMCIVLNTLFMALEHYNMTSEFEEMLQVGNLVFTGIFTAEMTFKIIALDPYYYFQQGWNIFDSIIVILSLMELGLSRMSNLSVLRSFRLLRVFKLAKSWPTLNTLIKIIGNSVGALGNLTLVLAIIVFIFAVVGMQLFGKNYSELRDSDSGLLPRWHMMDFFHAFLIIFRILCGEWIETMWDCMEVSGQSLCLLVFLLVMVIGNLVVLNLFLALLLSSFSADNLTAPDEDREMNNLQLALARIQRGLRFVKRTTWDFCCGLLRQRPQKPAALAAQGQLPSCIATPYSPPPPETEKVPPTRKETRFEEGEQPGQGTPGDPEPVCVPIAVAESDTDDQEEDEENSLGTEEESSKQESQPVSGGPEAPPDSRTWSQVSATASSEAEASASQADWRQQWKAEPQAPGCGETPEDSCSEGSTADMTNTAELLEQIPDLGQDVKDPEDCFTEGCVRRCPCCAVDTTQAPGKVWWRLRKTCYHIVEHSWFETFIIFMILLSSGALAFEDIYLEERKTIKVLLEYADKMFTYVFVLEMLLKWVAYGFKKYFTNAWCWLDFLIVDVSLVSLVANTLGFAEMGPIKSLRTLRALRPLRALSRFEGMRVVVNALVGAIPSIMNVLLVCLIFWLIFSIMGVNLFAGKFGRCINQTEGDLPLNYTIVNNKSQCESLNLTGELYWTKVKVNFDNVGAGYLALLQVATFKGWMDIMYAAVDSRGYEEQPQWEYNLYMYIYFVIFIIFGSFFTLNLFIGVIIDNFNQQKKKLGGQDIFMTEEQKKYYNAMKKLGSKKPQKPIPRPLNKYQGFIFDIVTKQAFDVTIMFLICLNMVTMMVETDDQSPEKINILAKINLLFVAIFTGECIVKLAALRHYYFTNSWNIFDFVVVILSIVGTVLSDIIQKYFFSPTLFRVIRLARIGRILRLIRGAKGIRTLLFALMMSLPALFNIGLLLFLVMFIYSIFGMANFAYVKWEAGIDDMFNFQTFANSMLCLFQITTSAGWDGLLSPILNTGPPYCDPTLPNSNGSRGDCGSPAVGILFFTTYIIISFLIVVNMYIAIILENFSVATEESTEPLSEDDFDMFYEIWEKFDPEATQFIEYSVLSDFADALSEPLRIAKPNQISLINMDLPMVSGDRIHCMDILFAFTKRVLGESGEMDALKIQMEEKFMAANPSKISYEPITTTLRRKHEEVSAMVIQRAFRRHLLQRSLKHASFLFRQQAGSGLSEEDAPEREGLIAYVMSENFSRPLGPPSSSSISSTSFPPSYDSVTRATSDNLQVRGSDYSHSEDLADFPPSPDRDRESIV

NaV1.6 = NaV1.6 (Homo sapiens (Human), UniProt Q9UQD0); test: Sodium Influx Assay (Flux), NaV1.6; format: cell-based; conditions: Trex HEK293 cells, ANG2 dye, inactivated state;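 further: Tetracycline-induced cells, compounds applied for one hour at room temperature with modulators holding channels open, IC50 from percent inhibition of sodium influx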

Molecule | pIC50 (NaV1.1) | pIC50 (NaV1.5) | pIC50 (NaV1.6)
Cc1c(NCc2c(Cl)ccc(F)c2CN2CCC2)cc(F)c(S(=O)(=O)Nc2cscn2)c1F [Example 313, 4-((2-(azetidin-1-ylmethyl)-6-chloro-3-fluorobenzyl)amino)-2,6-difluoro-3-methyl-N-(thiazol-4-yl)benzenesulfonamide 2,2,2-trifluoroacetate] | 5.43 | 4.84 | 7.85
C[C@H](Nc1cc(F)c(S(=O)(=O)Nc2nccs2)cc1Cl)c1ccc(Cl)cc1 [Example 14, (S)-5-chloro-4-((1-(4-chlorophenyl)ethyl)amino)-2-fluoro-N-(thiazol-2-yl)benzenesulfonamide] | 5.33 | 4.84 | 5.75
Cc1cccc(Cl)c1CNc1cc(F)c(S(=O)(=O)Nc2cscn2)cc1Cl [Example 226, 5-chloro-4-((2-chloro-6-methylbenzyl)amino)-2-fluoro-N-(thiazol-4-yl)benzenesulfonamide] | 4.70 | 4.95 | 5.09
CN(Cc1cccc(F)c1CNc1ccc(S(=O)(=O)Nc2cscn2)c(F)c1F)C(C)(C)C [Example 203, 4-((2-((tert-butyl(methyl)amino)methyl)-6-fluorobenzyl)amino)-2,3-difluoro-N-(thiazol-4-yl)benzenesulfonamide 2,2,2-trifluoroacetate] | 4.58 | 4.55 | 6.65
CCC[C@H](Nc1cc(F)c(S(=O)(=O)Nc2nccs2)cc1Cl)c1ccccc1 [Example 111, (S)-5-chloro-2-fluoro-4-((1-phenylbutyl)amino)-N-(thiazol-2-yl)benzenesulfonamide] | 5.86 | 5.08 | 6.45
O=S(=O)(Nc1cscn1)c1cc(Cl)c(NC2(c3ccccc3)CCC2)cc1F [Example 18, 5-chloro-2-fluoro-4-((1-phenylcyclobutyl)amino)-N-(thiazol-4-yl)benzenesulfonamide] | 5.08 | 4.92 | 5.47
CC(C)CN(C)Cc1cccc(F)c1CNc1cc(F)c(S(=O)(=O)Nc2cscn2)c(F)c1 [Example 175, 2,6-difluoro-4-((2-fluoro-6-((isobutyl(methyl)amino)methyl)benzyl)amino)-N-(thiazol-4-yl)benzenesulfonamide] | 4.97 | 4.84 | 6.47
O=S(=O)(Nc1ncccn1)c1c(F)cc(NCc2c(F)cccc2CN2CCC2)cc1F [Example 145, 4-((2-(azetidin-1-ylmethyl)-6-fluorobenzyl)amino)-2,6-difluoro-N-(pyrimidin-2-yl)benzenesulfonamide 2,2,2-trifluoroacetate] | 4.52 | 4.52 | 6.33
4-((2-((3-(difluoromethyl)azetidin-1-yl)methyl)-6-fluorobenzyl)amino)-2,6-difluoro-N-(thiazol-4-yl)benzenesulfonamide formate [Example 168] | 4.75 | 4.66 | 6.92
O=S(=O)(Nc1cscn1)c1cc(F)c(NCc2c(F)cccc2CN2CCC2)cc1F [Example 308, 4-((2-(azetidin-1-ylmethyl)-6-fluorobenzyl)amino)-2,5-difluoro-N-(thiazol-4-yl)benzenesulfonamide] | 4.59 | 4.58 | 6.22
C[C@@H](O)c1cccc(F)c1CNc1cc(F)c(S(=O)(=O)Nc2cscn2)c(F)c1 [Example 299, (R)-2,6-difluoro-4-((2-fluoro-6-(1-hydroxyethyl)benzyl)amino)-N-(thiazol-4-yl)benzenesulfonamide] | 6.16 | 4.66 | 5.44
C[C@H](Nc1cc(F)c(S(=O)(=O)Nc2ccon2)c(F)c1)c1cc(F)ccc1F [Example 240, (S)-4-((1-(2,5-difluorophenyl)ethyl)amino)-2,6-difluoro-N-(isoxazol-3-yl)benzenesulfonamide] | 4.52 | 4.52 | 5.50
C[C@H](Nc1cc(F)c(S(=O)(=O)Nc2cscn2)cc1Cl)c1cc(OCC2(C)COC2)ccc1F [Example 237, (S)-5-chloro-2-fluoro-4-((1-(2-fluoro-5-((3-methyloxetan-3-yl)methoxy)phenyl)ethyl)amino)-N-(thiazol-4-yl)benzenesulfonamide] | 4.90 | 4.52 | 5.45
O=S(=O)(Nc1nccs1)c1cc(Cl)c(N[C@@H]2CCCc3ccccc32)cc1F [Example 102, (R)-5-chloro-2-fluoro-4-((1,2,3,4-tetrahydronaphthalen-1-yl)amino)-N-(thiazol-2-yl)benzenesulfonamide] | 6.03 | 5.22 | 5.78
COC(C)(C)C1CN(Cc2ccccc2CNc2cc(F)c(S(=O)(=O)Nc3cscn3)c(F)c2)C1 [Example 214, 2,6-difluoro-4-((2-((3-(2-methoxypropan-2-yl)azetidin-1-yl)methyl)benzyl)amino)-N-(thiazol-4-yl)benzenesulfonamide 2,2,2-trifluoroacetate] | 4.87 | 4.79 | 6.49
C[C@H](Nc1cc(F)c(S(=O)(=O)Nc2cscn2)c(F)c1)c1cc(C(F)F)ccc1F [Example 233, (S)-4-((1-(5-(difluoromethyl)-2-fluorophenyl)ethyl)amino)-2,6-difluoro-N-(thiazol-4-yl)benzenesulfonamide] | 5.51 | 4.91 | 6.10
COC1CN(Cc2cccc(F)c2CNc2cc(F)c(S(=O)(=O)Nc3cscn3)c(F)c2)C1 [Example 171, 2,6-difluoro-4-((2-fluoro-6-((3-methoxyazetidin-1-yl)methyl)benzyl)amino)-N-(thiazol-4-yl)benzenesulfonamide formate] | – | 4.78 | –
C[C@H](Nc1cc(F)c(S(=O)(=O)Nc2cscn2)cc1Cl)c1cc(C2CC2)ccc1F [Example 146, (S)-5-chloro-4-((1-(5-cyclopropyl-2-fluorophenyl)ethyl)amino)-2-fluoro-N-(thiazol-4-yl)benzenesulfonamide] | 5.25 | 5.01 | 5.38
O=S(=O)(Nc1cscn1)c1c(F)cc(NCc2cccc(F)c2CN2CCC2)c(Cl)c1F [Example 197, 4-((2-(azetidin-1-ylmethyl)-3-fluorobenzyl)amino)-3-chloro-2,6-difluoro-N-(thiazol-4-yl)benzenesulfonamide 2,2,2-trifluoroacetate] | 4.92 | 4.56 | 7.64
C[C@H](Nc1cc(F)c(S(=O)(=O)Nc2cccc(F)n2)cc1Cl)c1ccccc1Cl [Example 23, (S)-5-chloro-4-((1-(2-chlorophenyl)ethyl)amino)-2-fluoro-N-(6-fluoropyridin-2-yl)benzenesulfonamide] | 5.27 | 5.39 | 5.82
Cc1cc(S(=O)(=O)Nc2cccc(F)n2)c(F)cc1NCc1ccccc1CN1CCC1 [Example 329, 4-((2-(azetidin-1-ylmethyl)benzyl)amino)-2-fluoro-N-(6-fluoropyridin-2-yl)-5-methylbenzenesulfonamide] | 5.09 | 4.55 | 6.67
O=S(=O)(Nc1nccs1)c1ccc(NC(c2ccccc2)C2CC2)c(Cl)c1 (stereo not drawn) [Example 99, 3-chloro-4-((cyclopropyl(phenyl)methyl)amino)-N-(thiazol-2-yl)benzenesulfonamide] | 5.71 | 5.03 | 6.43
CC1(F)CN(Cc2cccc(F)c2CNc2cc(F)c(S(=O)(=O)Nc3cscn3)c(F)c2)C1 [Example 180, 2,6-difluoro-4-((2-fluoro-6-((3-fluoro-3-methylazetidin-1-yl)methyl)benzyl)amino)-N-(thiazol-4-yl)benzenesulfonamide formate] | 4.66 | 4.62 | 6.78
C[C@H](Oc1cc(F)c(S(=O)(=O)Nc2cscn2)cc1Cl)c1cccc(F)c1 [Example 118, (S)-5-chloro-2-fluoro-4-(1-(3-fluorophenyl)ethoxy)-N-(thiazol-4-yl)benzenesulfonamide] | 4.80 | 5.12 | 5.50
O=S(=O)(Nc1nccs1)c1cc(Cl)c(NC(c2ccccc2)C2CC2)cc1F (stereo not drawn) [Example 100, 5-chloro-4-((cyclopropyl(phenyl)methyl)amino)-2-fluoro-N-(thiazol-2-yl)benzenesulfonamide] | 6.18 | 5.19 | 6.67
O=S(=O)(Nc1cscn1)c1c(F)cc(NCc2c(F)cccc2CN2CCCC2)cc1F [Example 166, 2,6-difluoro-4-((2-fluoro-6-(pyrrolidin-1-ylmethyl)benzyl)amino)-N-(thiazol-4-yl)benzenesulfonamide formate] | – | 4.82 | –
CCc1cc(S(=O)(=O)Nc2cscn2)c(F)cc1N[C@@H](C)c1cc(F)ccc1F [Example 297, (S)-4-((1-(2,5-difluorophenyl)ethyl)amino)-5-ethyl-2-fluoro-N-(thiazol-4-yl)benzenesulfonamide] | – | 5.06 | –
C[C@H](Nc1ccc(S(=O)(=O)Nc2cscn2)cc1C(F)(F)F)c1cc(F)ccc1F [Example 274, (S)-4-((1-(2,5-difluorophenyl)ethyl)amino)-N-(thiazol-4-yl)-3-(trifluoromethyl)benzenesulfonamide] | – | 5.34 | –
O=S(=O)(Nc1cscn1)c1c(F)cc(NCc2c(F)cccc2CN2CC3(COC3)C2)cc1F [Example 153, 4-((2-((2-oxa-6-azaspiro[3.3]heptan-6-yl)methyl)-6-fluorobenzyl)amino)-2,6-difluoro-N-(thiazol-4-yl)benzenesulfonamide formate] | – | 4.52 | –
COc1ccc(F)c([C@H](C)Nc2cc(F)c(S(=O)(=O)Nc3cscn3)c(F)c2)c1 [Example 238, (S)-2,6-difluoro-4-((1-(2-fluoro-5-methoxyphenyl)ethyl)amino)-N-(thiazol-4-yl)benzenesulfonamide] | 5.19 | – | –
